Experimental data from ChEMBL document CHEMBL5625209, “Rational design and optimization of acylthioureas as novel potent influenza virus non-nucleoside polymerase inhibitors” (Eur J Med Chem, 2023).
Activity calls are given as the source filed them. The calls are words filed in the database; no cut-off is given here.

Legend:
[1] = Cytotoxicity against MDCK cells by CCK-8 assay; format: toxicity, cell-based, Canis lupus familiaris; details: dog
Influenza A virus = test: Antiviral activity against Influenza A virus H1N1 (A/Puerto Rico/8/34) infected in MDCK cells assessed as reduction in virus-induced cytopathic effect incubated for 48 hrs by CCK8 assay; format: functional, organism-based
[2] = Selectivity index, ratio of CC50 for MDCK cells to EC50 for antiviral activity against Influenza A virus H1N1 (A/Puerto Rico/8/34) infected in MDCK cells; format: toxicity, cell-based; details: dog, read-out: Ratio CC50/EC50
Influenza B virus [3] = test: Antiviral activity against influenza B virus Victoria/2/87 infected in MDCK cells; format: functional, organism-based; details: Victoria/2/87, MDCK
Influenza B virus [4] = test: Antiviral activity against influenza B virus B/Yamagata/16/88 infected in MDCK cells; format: functional, organism-based; details: B/Yamagata/16/88, MDCK
[5] = Half life in Sprague-Dawley rat at 3 mg/kg, iv measured up to 24 hrs by LC-MS analysis; format: ADME, organism-based; details: in vivo
[6] = AUC(0 to infinity) in Sprague-Dawley rat at 3 mg/kg, iv measured up to 24 hrs by LC-MS analysis; format: ADME, organism-based; details: in vivo
[7] = Tmax in Sprague-Dawley rat at 10 mg/kg, po measured up to 24 hrs by LC-MS analysis; format: ADME, organism-based; details: in vivo
[8] = Half life in Sprague-Dawley rat at 10 mg/kg, po measured up to 24 hrs by LC-MS analysis; format: ADME, organism-based; details: in vivo
[9] = Tmax in Sprague-Dawley rat at 3 mg/kg, iv measured up to 24 hrs by LC-MS analysis; format: ADME, organism-based; details: in vivo
[10] = AUC(0 to t) in Sprague-Dawley rat at 10 mg/kg, po measured up to 24 hrs by LC-MS analysis; format: ADME, organism-based; details: in vivo
[11] = Oral bioavailability in Sprague-Dawley rat at 10 mg/kg measured up to 24 hrs by LC-MS analysis; format: ADME, organism-based; details: in vivo
[12] = Cmax in Sprague-Dawley rat at 3 mg/kg, iv measured up to 24 hrs by LC-MS analysis; format: ADME, organism-based; details: in vivo
[13] = AUC(0 to t) in Sprague-Dawley rat at 3 mg/kg, iv measured up to 24 hrs by LC-MS analysis; format: ADME, organism-based; details: in vivo
[14] = Cmax in Sprague-Dawley rat at 10 mg/kg, po measured up to 24 hrs by LC-MS analysis; format: ADME, organism-based; details: in vivo
[15] = AUC(0 to infinity) in Sprague-Dawley rat at 10 mg/kg, po measured up to 24 hrs by LC-MS analysis; format: ADME, organism-based; details: in vivo
[16] = Clearance in Sprague-Dawley rat at 3 mg/kg, iv measured up to 24 hrs by LC-MS analysis; format: ADME, organism-based; details: in vivo

Row | SMILES | CC50 [1] [µM] | EC50 (Influenza A virus) [µM] | selectivity ratio [2] | also measured
1 | CC(C)(C)c1ccc(C(=O)NC(=S)Nc2ccc(C(F)(F)F)cc2C(F)(F)F)cc1 | 74.3 | 0.45 | 165 | 
2 | CC(C)(C)c1ccc(C(=O)NC(=S)Nc2ccc(NC(=O)c3ccc(Br)cc3)cc2)cc1 | > 100 | 0.008 | > 12500 | 
3 | CC(=O)Nc1ccc(NC(=S)NC(=O)c2ccccc2)cc1 |  |  |  | Activity (Influenza A virus): inactive
4 | CCCCc1ccc(C(=O)Nc2ccc(NC(=S)NC(=O)c3ccc(C(C)(C)C)cc3)cc2)cc1 | > 100 | 0.008 | > 12500 | 
5 | CC(=O)Nc1ccc(NC(=S)NC(=O)c2ccc(C(C)C)cc2)cc1 | 46.9 | 11.2 | 4.2 | 
6 | COc1ccccc1NC(=S)NC(=O)c1ccc(C(C)(C)C)cc1 | > 100 | 0.11 | > 909 | 
7 | CC(=O)Nc1ccc(NC(=S)NC(=O)c2ccc(N(C)C)cc2)cc1 |  |  |  | Activity (Influenza A virus): inactive
8 | CC(C)(C)c1ccc(C(=O)NC(=S)Nc2c(Br)cc(Br)cc2Br)cc1 | 60.7 | 0.36 | 169 | 
9 | CC(C)(C)C(=O)Nc1ccc(NC(=S)NC(=O)c2ccc(C(C)(C)C)cc2)cc1 | 81 | 0.015 | 5400 | 
10 | COc1ccc(C(=O)Nc2ccc(NC(=S)NC(=O)c3ccc(C(C)(C)C)cc3)cc2)cc1 | 72.2 | 0.003 | 24100 | EC50 (Influenza B virus [3]): 0.4 µM; EC50 (Influenza B virus [4]): 0.3 µM
11 | CC(C)(C)c1ccc(C(=O)NC(=S)Nc2ccc(-n3cncn3)cc2)cc1 | 54 | 0.7 | 77.1 | 
12 | CC(=O)Nc1ccc(NC(=S)NC(=O)c2cc3ccccc3s2)cc1 | 90.2 | 0.27 | 334 | 
13 | COc1cccc(C(=O)Nc2ccc(NC(=S)NC(=O)c3ccc(C(C)(C)C)cc3)cc2)c1 | 72.2 | 0.023 | 3140 | 
14 | Cc1ccc(C(=O)Nc2ccc(NC(=S)NC(=O)c3ccc(C(C)(C)C)cc3)cc2)cc1 | > 100 | 0.027 | > 3700 | 
15 | CC(C)(C)c1ccc(C(=O)N2C(=O)CN(c3ccccc3F)C2=S)cc1 | 25.4 | 3.6 | 7.1 | 
16 | CCC(=O)Nc1ccc(NC(=S)NC(=O)c2ccc(C(C)(C)C)cc2)cc1 | 86.9 | 0.016 | 5430 | half-life [5]: 51 min; AUC ([6]; iv, 3 mg/kg, 24 h): 1236 ng·h/mL; Tmax [7]: 25.2 min; half-life [8]: 113 min; Tmax [9]: 4.8 min; AUC(0-t) at 24 h [10]: 34 ng·h/mL; EC50 (Influenza B virus [3]): 3.1 µM; bioavailability [11]: 0.83%; Cmax [12]: 3650 ng/mL; AUC(0-t) at 24 h [13]: 1240 ng·h/mL; Cmax [14]: 13 ng/mL; AUC(0-inf) [15]: 36 ng·h/mL; EC50 (Influenza B virus [4]): 2.5 µM
17 | CC(C)(C)c1ccc(C(=O)NC(=S)Nc2ccc(O)cc2)cc1 | 77.7 | 0.02 | 3880 | half-life [5]: 30.6 min; AUC(0-inf) ([6]; Sprague-Dawley): 1100 ng·h/mL; Tmax [7]: 94.8 min; Tmax [9]: 4.8 min; AUC(0-t) at 24 h [10]: 44.3 ng·h/mL; EC50 (Influenza B virus [3]): 5.2 µM; bioavailability [11]: 1.21%; Cmax [12]: 2520 ng/mL; AUC(0-t) at 24 h [13]: 1100 ng·h/mL; Cmax [14]: 12.8 ng/mL; clearance [16]: 46.4 mL/min/kg; EC50 (Influenza B virus [4]): 4 µM
18 | CC(C)(C)c1ccc(C(=O)NC(=S)Nc2ccc(N)cc2)cc1 | 100 | 0.024 | 4170 | EC50 (Influenza B virus [3]): 4.9 µM; EC50 (Influenza B virus [4]): 1.9 µM
19 | CC(C)(C)c1ccc(C(=O)NC(=S)Nc2ccc3ccccc3n2)cc1 | 91.7 | 0.83 | 110 | 
20 | CC(C)(C)c1ccc(C(=O)NC(=S)Nc2ccc(NC(=O)c3ccc(F)cc3)cc2)cc1 | > 100 | 0.027 | > 3700 | 
21 | Cc1ccccc1NC(=S)NC(=O)c1ccc(C(C)(C)C)cc1 | > 100 | 0.038 | > 2630 | 
22 | CC(C)(C)c1ccc(C(=O)NC(=S)Nc2ccccn2)cc1 | > 100 | 0.319 | > 314 | 
23 | CC(C)(C)c1ccc(C(=O)NC(=S)Nc2ccc(F)cc2)cc1 | > 100 | 0.61 | > 164 | 
24 | CC(C)(C)c1ccc(C(=O)NC(=S)Nc2ccccc2Cl)cc1 | 48 | 0.036 | 1330 | 
25 | CC(=O)N[C@H]1[C@H]([C@H](O)[C@H](O)CO)OC(C(=O)O)=C[C@@H]1N=C(N)N [ZANAMIVIR] | > 100 |  | > 1540 | 

Row | SMILES | CC50 [1] [µM] | EC50 (Influenza A virus) [µM] | selectivity ratio [2] | also measured
26 | O=C(NC(=S)Nc1ccccc1F)c1cc2ccccc2s1 | > 100 | 10 | > 10 | 
27 | CC(C)(C)c1ccc(C(=O)NC(=S)Nc2ccc(NC(=O)c3ccc(Cl)cc3)cc2)cc1 | > 100 | 0.003 | > 33300 | EC50 (Influenza B virus [3]): 0.9 µM; EC50 (Influenza B virus [4]): 0.3 µM
28 | CC(C)(C)c1ccc(C(=O)NC(=O)Nc2ccccc2F)cc1 | 97.9 | 0.15 | > 667 | 
29 | CC(C)(C)c1ccc(C(=O)NC(=S)Nc2c(Cl)cc(Cl)cc2Cl)cc1 | 80.2 | 0.48 | 167 | 
30 | CC(=O)Nc1ccc(NC(=S)NC(=O)c2ccccc2Cl)cc1 |  |  |  | Activity (Influenza A virus): inactive
31 | CCCc1ccc(C(=O)Nc2ccc(NC(=S)NC(=O)c3ccc(C(C)(C)C)cc3)cc2)cc1 | > 100 | 0.001 | > 100000 | 
32 | CC(C)(C)c1ccc(C(=O)NC(=S)Nn2cnnc2)cc1 | 65.9 | 0.88 | 74.9 | 
33 | COc1ccccc1C(=O)Nc1ccc(NC(=S)NC(=O)c2ccc(C(C)(C)C)cc2)cc1 | 72.2 | 0.027 | 2670 | 
34 | Cc1ccc(NC(=S)NC(=O)c2ccc(C(C)(C)C)cc2)c(Br)c1 | 41.1 | 0.032 | 1280 | EC50 (Influenza B virus [3]): 6.2 µM; EC50 (Influenza B virus [4]): 3.2 µM
35 | Cc1ccc(NC(=S)NC(=O)c2ccc(C(C)(C)C)cc2)c(C)c1 | 97.9 | 0.044 | 2220 | 
36 | CC(C)(C)c1ccc(C(=O)NC(=S)Nc2ccccc2F)cc1 | > 100 | 0.045 | > 2220 | 
37 | CC(=O)Nc1ccc(NC(=S)NC(=O)c2ccc(Cl)cc2)cc1 |  |  |  | Activity (Influenza A virus): inactive
38 | CC(=O)Nc1ccc(NC(=S)NC(=O)c2ccc(C(C)(C)C)cc2)cc1 | 50 | 0.25 | 200 | 
39 | CCc1ccc(C(=O)Nc2ccc(NC(=S)NC(=O)c3ccc(C(C)(C)C)cc3)cc2)cc1 | > 100 | 0.001 | > 100000 | 
40 | CC(C)(C)c1ccc(C(=O)NC(=S)Nc2cccc(F)c2)cc1 | 50.5 | 0.091 | 555 | 
41 | CC(C)(C)c1ccc(C(=O)NC(=S)Nc2ccc(F)cc2F)cc1 | 95.7 | 0.72 | 133 | 
42 | Cc1ncn(-c2ccc(NC(=S)NC(=O)c3ccc(C(C)(C)C)cc3)cc2)n1 | 52.7 | 16.9 | 3.1 | 
43 | CC(C)(C)c1ccc(C(=O)NC(=S)Nc2ccccc2Br)cc1 | 85.1 | 0.032 | 2660 | 
44 | CC(=O)Nc1ccc(NC(=S)NC(=O)c2cccs2)cc1 | 52.2 | 2.44 | 21.4 | 
45 | CCCCCc1ccc(C(=O)Nc2ccc(NC(=S)NC(=O)c3ccc(C(C)(C)C)cc3)cc2)cc1 | 77.2 | 0.01 | 7720 | 
46 | COc1ccc(C(=O)NC(=S)Nc2ccc(NC(C)=O)cc2)cc1 |  |  |  | Activity (Influenza A virus): inactive
47 | CC(C)(C)c1ccc(C(=O)NC(=S)Nc2c(Br)cccc2Br)cc1 | 70.9 | 0.17 | 417 | 
48 | CC(C)(C)c1ccc(C(=O)NC(=S)Nc2cc(Br)cc(Br)c2)cc1 | 70.9 | 0.64 | 111 | 
49 | COc1cccc(C(=O)NC(=S)Nc2ccc(NC(C)=O)cc2)c1 |  |  |  | Activity (Influenza A virus): inactive
50 | CC(C)(C)c1ccc(C(=O)NC(=S)Nc2ccc(NC(=O)c3ccccc3)cc2)cc1 | 77.2 | 0.004 | 19300 | EC50 (Influenza B virus [3]): 0.6 µM; EC50 (Influenza B virus [4]): 0.7 µM
